From article PMC10852989, “Combining cisplatin and a STING agonist into one molecule for metalloimmunotherapy of cancer” (National Science Review, 2024)

Assays:
[1] = test system: cancer cell lines (MCF-7, Caov3, PANC-1, BxPC3, Pan02); assay: 72 h MTT cytotoxicity, panel of cancer cell lines; format: cell-based
Description: (§1) Cytotoxicity. Tumor cells were cultured overnight after inoculation in RPMI-1640 medium or DMEM supplemented with 10% FBS. All cultures were maintained in an incubator in a highly humidified atmosphere of 95% air with 5% CO2 at 37 °C. Growth inhibition was measured with an MTT assay. Briefly, 2800–7000 cells per well in culture medium (100 μL) were plated in 96-well plates (Corning). The cells were treated in triplicate with different concentrations of complexes at 37 ℃ for 72 h. Stock solutions of CDDP and oxoplatin were prepared in PBS, while stock solutions of conjugates I and II and the ligand MSA-2 were prepared in DMSO. The stock solutions were diluted in complete medium (DMSO < 0.5%). An aliquot of MTT solution (40 μL, 2.5 mg·mL^–1) in PBS buffer was added to each well and incubated for 4 h. The supernatant was removed and DMSO (150 μL) was added to solubilize the formazan crystals. The amount of formazan was determined using a microplate reader at 570 nm after the plates were shaken for 30 min. The optical density (OD) was used to calculate the percentage of viable cells relative to untreated control values. Background readings for MTT incubated in cell-free medium were subtracted from each value before calculation. […] The mean IC50 values were calculated using data from three replicates.

[2] = test system: HK-2 cells; assay: 72 h MTT cytotoxicity, HK-2; format: cell-based; settings: human normal kidney cell line
Description: as §1

[3] = test system: Pan02 cells; assay: Pan02 cell viability with cell death inhibitors / at matched Pt uptake; format: cell-based; settings: Pan02, I 0.2 μM; necrostatin-1 50 μM, ferrostatin 50 μM
Description: For Pan02 cells, the cell viability in the presence of different cell death inhibitors was also determined. Therefore, Pan02 cells were respectively pre-incubated with z-VAD-fmk (50 μM), 3-Methyladenine (100 μM), ferrostatin (50 μM), necrostatin-1 (50 μM) 1 h, and then co-incubated I (0.2 μM) for 72 h. The cell viability was then determined.
Fig. S17. (A) The chemical structure of Pt-E-I. (B) Cellular uptake of Pt (ng Pt/mg protein) in Pan02 cells after exposure to Pt-E-I (5 μM) for 6 h. NH4Cl: cells preincubated with 50 mM NH4Cl; MI: cells preincubated with 50 mM 2-deoxy-D-glucose and 5 μΜ oligomycin. (C) Cellular uptake of Pt (ng Pt/mg protein) in Pan02 cells after exposure to I and Pt-E-I (1, 2, 5, 10, 20 μM) for 6 h. (D) The cell viability of Pan02 treated with I (5 μM) and Pt-E-I (20 μM). (E) Hierarchical clustering of differentially expressed genes between I-treated (5 μM) Pan02 cells, Pt-E-I-treated (20 μM) and nontreated cells.

[4] = test system: STING pathway in BMDCs; assay: IFN-β and IL-6 ELISA in supernatants of BMDCs treated with complexes; format: cell-based, mouse
Description: ELISA. Bone marrow-derived dendritic cells (BMDCs) were prepared according to the following method. Briefly, femurs and tibias were removed from 4-6 week-old C57BL/6 mice, and the bone marrow cells were isolated. The bone marrow cells were incubated in T cell medium [RPMI-1640 medium (with GlutaMAX), supplemented with 10% FBS, 1% HEPES, 1% NEAA, 1% sodium pyruvate, and 0.1% βME] containing 20 ng/mL GM-CSF for 6 days after erythrocyte lysis, during which time half of the medium was replaced with fresh T cell medium once and the cytokines were supplemented. Then, the BMDCs were harvested on day 7 for further study.
BMDCs were cultured with 50% CM plus 50% fresh medium for 18 h. In addition, BMDCs were cultured with fresh medium containing different complexes or mixtures (15 μM CDDP and I, a mixture of I and 8 equiv. AsA, and equal AsA). Then, all the BMDC supernatant was collected and centrifuged for subsequent cytokine analysis using ELISA kits, which were performed according to the manufacturer’s instructions.

[5] = test system: Caov3 cells; assay: 72 h MTT cytotoxicity, Caov3; format: cell-based, human
Description: as §1

[6] = test system: PANC-1 cells; assay: cellular uptake of Pt by ICP-MS, PANC-1; format: cell-based, human
Description: Cellular uptake. All incubations were carried out in the dark. After the designated incubation period, the medium was removed, and the cells were harvested with trypsin and rinsed twice with PBS (1×, 20 mM, pH 7.4), followed by digestion and ICP-MS.
Cancer cells were seeded in a 6-well plate at a density of 5×10^5 cells per well. After incubation for 24 h, the cells were treated with each complex for 6 h.
Cancer cells preincubated with metabolic inhibitor (MIs) were also evaluated. These cells were preincubated with 2-deoxy-D-glucose and oligomycin (50 mM and 5 μM, respectively, 1 h) or NH4Cl (50 mM, 1 h) at 37 ℃ followed by incubation with DMEM containing CDDP, I or II at 37 ℃ for 6 h.
Digestion. Cell pellets were collected by centrifugation and then digested with nitric acid (100 µL) for 2 h at 95 °C, followed by the addition of H2O2 (50 µL) at 95 °C for 0.5 h. HCl (100 µL) was added and kept at 95 °C until the total volume was less than 20 μL. Water was then added to dilute the solution to 1 mL, and the final Pt content was determined by ICP-MS.

[7] = test system: PANC-1 cells; assay: 72 h MTT cytotoxicity, PANC-1; format: cell-based, human
Description: as §1

[8] = test system: nuclear DNA of PANC-1 cells; assay: platination of cellular DNA by ICP-MS; format: cell-based, human; settings: 6 h
Description: DNA platination. Cancer cells were seeded in 6-well plates at a density of 5×10^5 cells per well. After incubation at 37 °C for 24 h, the cells were treated with each complex for 6 h. The attached cells were harvested with trypsin and washed twice with PBS (4 °C). The cell pellets were lysed with the TIANamp Genomic DNA Kit. The DNA concentration was determined using NanoDrop spectrophotometer, and then the isolated DNA was digested with the same method mentioned above. The final Pt content was determined by ICP-MS.

[9] = test system: Pan02 cells; assay: 72 h MTT cytotoxicity, Pan02; format: cell-based, mouse
Description: as §1

[10] = pretreated with 8 equiv. AsA for 24 h, compared with no pretreatment

COc1cc2cc(C(=O)CCC(=O)[O][Pt]([NH2])([NH2])([OH])([Cl])[Cl])sc2cc1OC [conjugate I]
IC50 in these cancer cell lines [1]: submicromolar | IC50 [2]: 120 ± 10 nM | cell killing on co-incubation with necroptosis and ferroptosis inhibitors [3]: significant reversal of cell killing | IFN-β secretion by BMDCs ([4]; 18 h, ELISA, 15 μM): minimal | IL-6 secretion by BMDCs ([4]; 18 h, ELISA, 15 μM): minimal | IFN-β secretion by BMDCs, compound pretreated with AsA [4, 10]: significantly enhanced | IL-6 secretion by BMDCs, compound pretreated with AsA [4, 10]: significantly enhanced | IC50 [5]: 700 ± 100 nM | cellular Pt levels after preincubation with metabolic inhibitors (MIs) ([6]; PANC-1, 5 μM, 6 h, 50 mM 2-deoxy-D-glucose and 5 μM oligomycin, versus no MI pretreatment): significantly decreased | intracellular Pt levels after pretreatment with endocytosis inhibitor NH4Cl ([6]; PANC-1, 5 μM, 6 h, 50 mM NH4Cl): did not significantly change | fold increase of cellular Pt compared with CDDP ([6]; PANC-1 cells, 6 h): 92 fold | fold increase of cellular Pt compared with conjugate II ([6]; PANC-1 cells, 6 h): 68 fold | cellular Pt content ([6]; PANC-1 cells, 6 h incubation, ICP-MS): 155.7 ng Pt/mg protein | IC50 [7]: 60 ± 20 nM | platination of cellular DNA [8]: stronger than that by CDDP or conjugate II | IC50 [9]: 50 ± 10 nM
